How the values were obtained:
[1] = tested on: phenyl-p-quinone-induced writhing (abdominal contractions); experiment: phenylquinone-induced writhing test (analgesic activity), compound given 30 min before phenyl-p-quinone; format: in vivo, male Wistar rats
In short: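 Male Wistar rats (110±5 g), fasted 14 h, received test compounds orally or parenterally in 0.5% CMC/saline vehicle 30 min before 2 ml of 0.36% phenyl-p-quinone in 5% ethanol.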

in vivo [2] = conditions: rat
[3] = tested on: cough provoked by mechanical stimulation of the tracheal bifurcation mucosa; experiment: antitussive activity, mechanically provoked coughing; format: in vivo, albino Guinea-pigs; conditions: 1 h after administration
Protocol: The antitussive effect on albino Guinea-pigs weighing 300 g was evaluated using the method described by Y. Kase (Selected Pharmacological Testing Methods, p.363, Marcel Dekker Inc., New York, 1968). Each dose was tested in a group of animals with a Y cannula inserted into the trachea. In order to provoke coughing, the mucosa of the tracheal bifurcation was mechanically stimulated by insertion of a wild boar's hair through an opening in the cannula, while the other opening was connected to a kymograph to plot the amplitude and/or frequency. The reduction in the number of coughs was evaluated at one hour after administration of the compounds under examination by following the plottings for twenty minutes and comparing the response of the control animals.

[4] = tested on: mucus secreted by the respiratory airway; experiment: antisecretory activity, respiratory mucus secretion; format: in vivo, albino male New Zealand rabbits; conditions: vs control group
Protocol: The experiment was carried out in accordance with the method described by Y. Kase (Folia Pharmacol. Jap. 73: 605, 1977) for the purpose of investigating whether or not the compounds under examination determine changes in the volume of the mucus secreted by the respiratory airway. Groups of four albino male New Zealand rabbits (mean weight: 2.5 kg) were used for testing each dose per single group. The animals were anesthetized with urethane (1.1 g/ks b.w.) via the intraperitoneal route and a Y cannula was inserted into the trachea. In order to stimulate mucous secretion a humidifier was connected to the cannula permitting the animals to spontaneously breathe air with 100% humidity at a constant temperature of 39° C. The secreted mucus was collected through another opening in the cannula and measured at three and six hours after administration of the compounds under examination or of the vehicle alone administered in the order of […] (controls). Calculation of the increase or decrease in mucous secretion was based upon the percentage differences between the groups treated with the compounds under examination and the control group. Table VII gives the percentage differences in mucous secretion, and the tested compounds with relative doses and routes of administration.

[5] = tested on: carrageenin-induced oedema; experiment: carrageenin-induced oedema test (anti-inflammatory activity); format: in vivo, albino male Wistar rats
in vivo [6] = conditions: mouse

For `COc1ccccc1OC(=O)CNC(=O)Cc1ccc(C(=O)c2ccc(C)cc2)n1C` [Compound 1-d, 1-methyl-5-p-toluoylpyrrole-2-acetamidoacetic acid guaiacyl ester], the “% Protection” value ([1]; 5 mg/Kg i.p.) was 22.1%, the “% Protection” value ([1]; 5 mg/Kg per os) was 29.1% and the “% Protection” value ([1]; 10 mg/Kg i.p.) was 56.0%. The “% Protection” value ([1]; 10 mg/Kg per os) was 53.4%, the “% Protection” value ([1]; 20 mg/Kg i.p.) was 87.0% and the “% Protection” value ([1]; 20 mg/Kg per os) was 80.2%. For the same compound, the LD50 (in vivo [2]; ip) was 1100 mg/kg, the LD50 (in vivo [2]; po) was 1450 mg/kg and the “% inhibition, cough amplitude” value ([3]; 50 mg/Kg i.p.) was 12%. The “% inhibition, cough frequency” value ([3]; 50 mg/Kg i.p.) was 15%, the “% inhibition, cough amplitude” value ([3]; 50 mg/Kg per os) was 10% and the “% inhibition, cough frequency” value ([3]; 50 mg/Kg per os) was 18%. The “% inhibition, cough amplitude” value ([3]; 75 mg/Kg i.p.) was 20%, the “% inhibition, cough frequency” value ([3]; 75 mg/Kg i.p.) was 36% and the “% inhibition, cough amplitude” value ([3]; 75 mg/Kg per os) was 22%. The “% inhibition, cough frequency” value ([3]; 75 mg/Kg per os) was 29%, the “% inhibition, cough amplitude” value ([3]; 100 mg/Kg i.p.) was 30% and the “% inhibition, cough frequency” value ([3]; 100 mg/Kg i.p.) was 45%. The “% inhibition, cough amplitude” value ([3]; 100 mg/Kg per os) was 30%, the “% inhibition, cough frequency” value ([3]; 100 mg/Kg per os) was 49% and the “% difference in mucus secretion” value ([4]; 50 mg/Kg i.p., 3 h) was -5%. For the same compound, the “% difference in mucus secretion” value ([4]; 50 mg/Kg i.p., 6 h) was -5%, the “% difference in mucus secretion” value ([4]; 50 mg/Kg per os, 3 h) was 0.0% and the “% difference in mucus secretion” value ([4]; 50 mg/Kg per os, 6 h) was 0.0%. For the same compound, the “% difference in mucus secretion” value ([4]; 75 mg/Kg i.p., 3 h) was -18%, the “% difference in mucus secretion” value ([4]; 75 mg/Kg i.p., 6 h) was -15% and the “% difference in mucus secretion” value ([4]; 75 mg/Kg per os, 3 h) was -15%. For the same compound, the “% difference in mucus secretion” value ([4]; 75 mg/Kg per os, 6 h) was -10%, the “% difference in mucus secretion” value ([4]; 100 mg/Kg i.p., 3 h) was -38% and the “% difference in mucus secretion” value ([4]; 100 mg/Kg i.p., 6 h) was -30%. For the same compound, the “% difference in mucus secretion” value ([4]; 100 mg/Kg per os, 3 h) was -32%, the “% difference in mucus secretion” value ([4]; 100 mg/Kg per os, 6 h) was -27% and the oedema % inhibition ([5]; 2.5 mg/Kg per os, 2 h) was 50.0%. For the same compound, the oedema % inhibition ([5]; 2.5 mg/Kg per os, 4 h) was 34.6%, the oedema % inhibition ([5]; 2.5 mg/Kg per os, 6 h) was 23.1% and the oedema % inhibition ([5]; 2.5 mg/Kg per os, 24 h) was 0.0%. The oedema % inhibition ([5]; 2.5 mg/Kg per os, 48 h) was 0.0%, the oedema % inhibition ([5]; 2.5 mg/Kg per os, 72 h) was 0.0% and the oedema % inhibition ([5]; 2.5 mg/Kg, Table IV (route not given), 2 h) was 52.3%. For the same compound, the oedema % inhibition ([5]; 2.5 mg/Kg, Table IV (route not given), 4 h) was 37.0%, the oedema % inhibition ([5]; 2.5 mg/Kg, Table IV (route not given), 6 h) was 26.0% and the oedema % inhibition ([5]; 2.5 mg/Kg, Table IV (route not given), 24 h) was 14.0%. For the same compound, the oedema % inhibition ([5]; 2.5 mg/Kg, Table IV (route not given), 48 h) was 0.0%, the oedema % inhibition ([5]; 2.5 mg/Kg, Table IV (route not given), 72 h) was 0.0% and the oedema % inhibition ([5]; 5 mg/Kg per os, 2 h) was 51.4%. It also gave an oedema % inhibition ([5]; 5 mg/Kg per os, 4 h) of 38.8%, an oedema % inhibition ([5]; 5 mg/Kg per os, 6 h) of 24.0% and an oedema % inhibition ([5]; 5 mg/Kg per os, 24 h) of 10.0%. For the same compound, the oedema % inhibition ([5]; 5 mg/Kg per os, 48 h) was 10.0%, the oedema % inhibition ([5]; 5 mg/Kg per os, 72 h) was 6.0% and the oedema % inhibition ([5]; 5 mg/Kg, Table IV (route not given), 2 h) was 54.0%. For the same compound, the oedema % inhibition ([5]; 5 mg/Kg, Table IV (route not given), 4 h) was 40.0%, the oedema % inhibition ([5]; 5 mg/Kg, Table IV (route not given), 6 h) was 24.6% and the oedema % inhibition ([5]; 5 mg/Kg, Table IV (route not given), 24 h) was 10.1%. The oedema % inhibition ([5]; 5 mg/Kg, Table IV (route not given), 48 h) was 0.0%, the oedema % inhibition ([5]; 5 mg/Kg, Table IV (route not given), 72 h) was 0.0% and the oedema % inhibition ([5]; 10 mg/Kg per os, 2 h) was 61.5%. It also gave an oedema % inhibition ([5]; 10 mg/Kg per os, 4 h) of 41.2%, an oedema % inhibition ([5]; 10 mg/Kg per os, 6 h) of 34.9% and an oedema % inhibition ([5]; 10 mg/Kg per os, 24 h) of 12.6%. For the same compound, the oedema % inhibition ([5]; 10 mg/Kg per os, 48 h) was 14.0%, the oedema % inhibition ([5]; 10 mg/Kg per os, 72 h) was 9.0% and the oedema % inhibition ([5]; 10 mg/Kg, Table IV (route not given), 2 h) was 60.0%. The oedema % inhibition ([5]; 10 mg/Kg, Table IV (route not given), 4 h) was 46.9%, the oedema % inhibition ([5]; 10 mg/Kg, Table IV (route not given), 6 h) was 36.7% and the oedema % inhibition ([5]; 10 mg/Kg, Table IV (route not given), 24 h) was 16.5%. The oedema % inhibition ([5]; 10 mg/Kg, Table IV (route not given), 48 h) was 6.3%, the oedema % inhibition ([5]; 10 mg/Kg, Table IV (route not given), 72 h) was 0.0% and the oedema % inhibition ([5]; 20 mg/Kg per os, 2 h) was 62.1%. For the same compound, the oedema % inhibition ([5]; 20 mg/Kg per os, 4 h) was 48.7%, the oedema % inhibition ([5]; 20 mg/Kg per os, 6 h) was 32.8% and the oedema % inhibition ([5]; 20 mg/Kg per os, 24 h) was 26.6%. It also gave an oedema % inhibition ([5]; 20 mg/Kg per os, 48 h) of 25.9%, an oedema % inhibition ([5]; 20 mg/Kg per os, 72 h) of 3.3% and an oedema % inhibition ([5]; 20 mg/Kg, Table IV (route not given), 2 h) of 65.0%. It also gave an oedema % inhibition ([5]; 20 mg/Kg, Table IV (route not given), 4 h) of 50.4%, an oedema % inhibition ([5]; 20 mg/Kg, Table IV (route not given), 6 h) of 48.6% and an oedema % inhibition ([5]; 20 mg/Kg, Table IV (route not given), 24 h) of 23.5%. The oedema % inhibition ([5]; 20 mg/Kg, Table IV (route not given), 48 h) was 9.1%, the oedema % inhibition ([5]; 20 mg/Kg, Table IV (route not given), 72 h) was 8.4% and the oedema % inhibition ([5]; 50 mg/Kg per os, 2 h) was 66.9%. For the same compound, the oedema % inhibition ([5]; 50 mg/Kg per os, 4 h) was 66.8%, the oedema % inhibition ([5]; 50 mg/Kg per os, 6 h) was 57.8% and the oedema % inhibition ([5]; 50 mg/Kg per os, 24 h) was 30.9%. It also gave an oedema % inhibition ([5]; 50 mg/Kg per os, 48 h) of 36.3%, an oedema % inhibition ([5]; 50 mg/Kg per os, 72 h) of 38.6% and an oedema % inhibition ([5]; 50 mg/Kg, Table IV (route not given), 2 h) of 69.7%. The oedema % inhibition ([5]; 50 mg/Kg, Table IV (route not given), 4 h) was 74.0%, the oedema % inhibition ([5]; 50 mg/Kg, Table IV (route not given), 6 h) was 67.2% and the oedema % inhibition ([5]; 50 mg/Kg, Table IV (route not given), 24 h) was 34.5%. It also gave an oedema % inhibition ([5]; 50 mg/Kg, Table IV (route not given), 48 h) of 20.8%, an oedema % inhibition ([5]; 50 mg/Kg, Table IV (route not given), 72 h) of 15.3% and an oedema % inhibition ([5]; 100 mg/Kg per os, 2 h) of 68.0%. The oedema % inhibition ([5]; 100 mg/Kg per os, 4 h) was 74.0%, the oedema % inhibition ([5]; 100 mg/Kg per os, 6 h) was 67.5% and the oedema % inhibition ([5]; 100 mg/Kg per os, 24 h) was 40.3%. The oedema % inhibition ([5]; 100 mg/Kg per os, 48 h) was 38.0%, the oedema % inhibition ([5]; 100 mg/Kg per os, 72 h) was 33.0% and the oedema % inhibition ([5]; 100 mg/Kg, Table IV (route not given), 2 h) was 76.5%. The oedema % inhibition ([5]; 100 mg/Kg, Table IV (route not given), 4 h) was 79.5%, the oedema % inhibition ([5]; 100 mg/Kg, Table IV (route not given), 6 h) was 73.4% and the oedema % inhibition ([5]; 100 mg/Kg, Table IV (route not given), 24 h) was 42.4%. It also gave an oedema % inhibition ([5]; 100 mg/Kg, Table IV (route not given), 48 h) of 33.0%, an oedema % inhibition ([5]; 100 mg/Kg, Table IV (route not given), 72 h) of 31.6% and an LD50 (in vivo [6]; ip) of 1370 mg/kg. For the same compound, the LD50 (in vivo [6]; po) was greater than 1500 mg/kg.

Source: patent US4882349A, “Pyrrolacetic amides having antiinflammatory activity” (priority 1982, dated 1989)
